From ChEMBL document CHEMBL5696442, “Discovery of type II inhibitors of TGFβ-activated kinase 1 (TAK1) and mitogen-activated protein kinase kinase kinase kinase 2 (MAP4K2)” (J Med Chem, 2015)

Key:
[1] = target: Mitogen-activated protein kinase kinase kinase 4 (Homo sapiens) (UniProt Q9Y6R4); assay: Inhibition of MAP3K4 Lys1 labeling site in human Huh-7 cell lysate at 1 uM by KiNativ Profiling analysis relative to control; assay type: subcellular
[2] = target: Serine/threonine-protein kinase MARK2 (Homo sapiens) (UniProt Q7KZI7); assay: Inhibition of MARK2 Lys1 labeling site harbouring HILTGKEVAVKIIDKTQLNSSSLQK in human Huh-7 cell lysate at 1 uM by KiNativ Profiling analysis relative to control; assay type: subcellular
[3] = target: Serine/threonine-protein kinase 25 (Homo sapiens) (UniProt O00506); assay: Inhibition of YSK1 Lys2 labeling site in human Huh-7 cell lysate at 1 uM by KiNativ Profiling analysis relative to control; assay type: subcellular
[4] = target: Calcium/calmodulin-dependent protein kinase type II subunit delta (Homo sapiens) (UniProt Q13557); assay: Inhibition of CaMK2d Lys2 labeling site in human Huh-7 cells at 1 uM by KiNativ Profiling analysis relative to control; assay type: cell-based
[5] = target: MAP/microtubule affinity-regulating kinase 3 (Homo sapiens) (UniProt P27448); assay: Inhibition of MARK3 Lys2 labeling site in human Huh-7 cells at 1 uM by KiNativ Profiling analysis relative to control; assay type: cell-based
[6] = target: Rho-associated protein kinase 2 (Homo sapiens) (UniProt O75116); assay: Inhibition of ROCK2 Lys2 labeling site in human Huh-7 cells at 1 uM by KiNativ Profiling analysis relative to control; assay type: cell-based
[7] = target: T1, Serine/threonine-protein kinase TAO2 (Homo sapiens) (UniProt Q9UL54); assay: Inhibition of TAO2 Lys2 labeling site in human Huh-7 cells at 1 uM by KiNativ Profiling analysis relative to control; assay type: cell-based
T1 sequence (whole entry): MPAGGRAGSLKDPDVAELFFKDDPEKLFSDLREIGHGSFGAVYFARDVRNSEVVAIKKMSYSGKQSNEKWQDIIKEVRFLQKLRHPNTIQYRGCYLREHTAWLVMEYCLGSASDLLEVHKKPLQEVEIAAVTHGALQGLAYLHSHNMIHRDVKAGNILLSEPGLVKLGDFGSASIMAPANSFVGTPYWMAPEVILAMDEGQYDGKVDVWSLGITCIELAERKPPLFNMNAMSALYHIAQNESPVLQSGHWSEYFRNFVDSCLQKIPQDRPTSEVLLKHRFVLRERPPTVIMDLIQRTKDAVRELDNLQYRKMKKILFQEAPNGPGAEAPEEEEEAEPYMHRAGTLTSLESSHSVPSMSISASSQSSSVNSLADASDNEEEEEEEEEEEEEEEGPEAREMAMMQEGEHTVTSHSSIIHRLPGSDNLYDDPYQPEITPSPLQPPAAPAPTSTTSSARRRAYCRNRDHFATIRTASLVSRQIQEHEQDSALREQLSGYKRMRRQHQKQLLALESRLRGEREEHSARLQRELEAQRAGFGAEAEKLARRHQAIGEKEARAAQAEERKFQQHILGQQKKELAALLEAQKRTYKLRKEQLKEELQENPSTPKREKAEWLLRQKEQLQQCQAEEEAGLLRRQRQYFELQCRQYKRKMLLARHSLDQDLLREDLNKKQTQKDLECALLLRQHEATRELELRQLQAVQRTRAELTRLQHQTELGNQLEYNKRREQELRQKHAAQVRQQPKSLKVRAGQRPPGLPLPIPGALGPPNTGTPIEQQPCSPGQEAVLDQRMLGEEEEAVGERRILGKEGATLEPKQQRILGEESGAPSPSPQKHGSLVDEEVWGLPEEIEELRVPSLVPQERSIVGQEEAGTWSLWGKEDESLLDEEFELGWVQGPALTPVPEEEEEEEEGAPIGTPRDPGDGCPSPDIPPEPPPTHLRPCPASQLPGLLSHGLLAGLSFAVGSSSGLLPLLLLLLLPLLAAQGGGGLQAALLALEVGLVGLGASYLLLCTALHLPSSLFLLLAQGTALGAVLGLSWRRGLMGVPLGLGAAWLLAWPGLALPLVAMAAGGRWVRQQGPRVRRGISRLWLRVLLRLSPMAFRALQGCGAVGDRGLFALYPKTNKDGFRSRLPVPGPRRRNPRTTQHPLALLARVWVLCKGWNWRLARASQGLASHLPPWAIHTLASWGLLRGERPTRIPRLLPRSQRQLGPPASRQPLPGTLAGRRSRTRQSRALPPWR

[8] = target: Receptor tyrosine-protein kinase erbB-4 (Homo sapiens) (UniProt Q15303); assay: Inhibition of ERBB4 (unknown origin) at 10 uM by Ambit Kinomescan binding assay
[9] = target: Non-receptor tyrosine-protein kinase TYK2 (Homo sapiens) (UniProt P29597); assay: Inhibition of TYK2 domain2 ACT labeling site in human A-375 cells at 5 uM by KiNativ Profiling analysis relative to control; assay type: cell-based
[10] = target: Tyrosine-protein kinase ABL (Homo sapiens) (UniProt P00519+P42684); assay: Inhibition of ABL1/2 ACT labeling site in human Huh-7 cells at 10 uM by KiNativ Profiling analysis relative to control; assay type: cell-based
[11] = target: T2, Aurora kinase A (Homo sapiens) (UniProt O14965); assay: Inhibition of AurA Lys2 labeling site in human A-375 cells at 0.05 uM by KiNativ Profiling analysis relative to control; assay type: cell-based
T2 sequence (whole entry): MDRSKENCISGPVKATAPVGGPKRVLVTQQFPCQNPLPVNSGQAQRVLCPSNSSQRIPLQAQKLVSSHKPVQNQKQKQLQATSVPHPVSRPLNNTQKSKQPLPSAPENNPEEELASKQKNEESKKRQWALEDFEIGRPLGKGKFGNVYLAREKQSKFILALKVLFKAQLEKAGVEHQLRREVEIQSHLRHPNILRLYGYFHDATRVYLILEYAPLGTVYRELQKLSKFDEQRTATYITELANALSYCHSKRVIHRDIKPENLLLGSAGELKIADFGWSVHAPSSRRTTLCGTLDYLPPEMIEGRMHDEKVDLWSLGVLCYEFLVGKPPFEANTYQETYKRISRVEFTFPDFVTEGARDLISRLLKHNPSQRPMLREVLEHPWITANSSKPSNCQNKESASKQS

[12] = target: Cyclin-dependent kinase 1 (Homo sapiens) (UniProt P06493); assay: Inhibition of CDC2 Lys2 labeling site harbouring DLKPQNLLIDDKGTIK in human A-375 cells at 0.05 uM by KiNativ Profiling analysis relative to control; assay type: cell-based
[13] = target: Serine/threonine-protein kinase 17A (Homo sapiens) (UniProt Q9UEE5); assay: Inhibition of DRAK1 (unknown origin) at 1 uM by Ambit Kinomescan binding assay relative to control; values are per cent of control
Chain of Serine/threonine-protein kinase 17A (Homo sapiens) (Q9UEE5 whole entry): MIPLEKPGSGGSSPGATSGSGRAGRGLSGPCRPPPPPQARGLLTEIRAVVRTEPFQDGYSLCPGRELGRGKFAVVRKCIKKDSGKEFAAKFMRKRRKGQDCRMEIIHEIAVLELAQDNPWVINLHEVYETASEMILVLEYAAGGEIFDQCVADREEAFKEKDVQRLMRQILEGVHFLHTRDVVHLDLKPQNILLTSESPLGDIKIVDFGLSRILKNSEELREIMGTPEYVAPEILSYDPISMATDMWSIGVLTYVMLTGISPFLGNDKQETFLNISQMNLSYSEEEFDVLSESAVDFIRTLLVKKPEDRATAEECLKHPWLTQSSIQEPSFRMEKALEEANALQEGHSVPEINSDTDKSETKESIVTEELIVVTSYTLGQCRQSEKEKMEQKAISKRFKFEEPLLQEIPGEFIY

Chain of Tyrosine-protein kinase ABL (Homo sapiens) (P00519 whole entry, looked up): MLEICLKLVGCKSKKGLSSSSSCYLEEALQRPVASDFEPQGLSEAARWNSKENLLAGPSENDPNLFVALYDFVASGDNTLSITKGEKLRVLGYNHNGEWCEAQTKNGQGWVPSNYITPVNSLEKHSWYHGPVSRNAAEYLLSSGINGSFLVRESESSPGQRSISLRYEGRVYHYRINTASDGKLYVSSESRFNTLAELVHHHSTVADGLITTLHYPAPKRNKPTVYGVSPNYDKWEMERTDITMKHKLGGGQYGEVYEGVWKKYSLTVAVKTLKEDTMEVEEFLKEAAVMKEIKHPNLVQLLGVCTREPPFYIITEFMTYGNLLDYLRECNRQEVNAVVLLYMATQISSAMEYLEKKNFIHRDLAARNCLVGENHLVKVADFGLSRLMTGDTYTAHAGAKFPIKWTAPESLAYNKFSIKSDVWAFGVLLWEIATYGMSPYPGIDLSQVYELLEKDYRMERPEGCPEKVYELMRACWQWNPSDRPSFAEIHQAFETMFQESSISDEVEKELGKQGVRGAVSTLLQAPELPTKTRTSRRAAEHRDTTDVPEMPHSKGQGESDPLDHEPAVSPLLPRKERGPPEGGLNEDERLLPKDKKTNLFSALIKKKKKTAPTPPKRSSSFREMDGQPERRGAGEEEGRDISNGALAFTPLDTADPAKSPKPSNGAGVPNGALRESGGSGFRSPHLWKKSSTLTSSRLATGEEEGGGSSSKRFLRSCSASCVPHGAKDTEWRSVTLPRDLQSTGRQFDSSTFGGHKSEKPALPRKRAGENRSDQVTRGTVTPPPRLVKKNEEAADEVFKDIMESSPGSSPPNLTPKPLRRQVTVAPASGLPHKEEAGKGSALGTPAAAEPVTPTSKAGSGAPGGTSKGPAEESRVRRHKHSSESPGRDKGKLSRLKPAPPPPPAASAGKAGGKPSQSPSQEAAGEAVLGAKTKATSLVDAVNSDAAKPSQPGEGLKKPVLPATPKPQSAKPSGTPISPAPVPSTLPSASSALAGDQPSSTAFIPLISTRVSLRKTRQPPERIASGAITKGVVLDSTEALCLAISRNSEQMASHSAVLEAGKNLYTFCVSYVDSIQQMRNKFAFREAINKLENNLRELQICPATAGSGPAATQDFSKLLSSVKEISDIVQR
Chain of Tyrosine-protein kinase ABL (Homo sapiens) (P42684 whole entry, looked up): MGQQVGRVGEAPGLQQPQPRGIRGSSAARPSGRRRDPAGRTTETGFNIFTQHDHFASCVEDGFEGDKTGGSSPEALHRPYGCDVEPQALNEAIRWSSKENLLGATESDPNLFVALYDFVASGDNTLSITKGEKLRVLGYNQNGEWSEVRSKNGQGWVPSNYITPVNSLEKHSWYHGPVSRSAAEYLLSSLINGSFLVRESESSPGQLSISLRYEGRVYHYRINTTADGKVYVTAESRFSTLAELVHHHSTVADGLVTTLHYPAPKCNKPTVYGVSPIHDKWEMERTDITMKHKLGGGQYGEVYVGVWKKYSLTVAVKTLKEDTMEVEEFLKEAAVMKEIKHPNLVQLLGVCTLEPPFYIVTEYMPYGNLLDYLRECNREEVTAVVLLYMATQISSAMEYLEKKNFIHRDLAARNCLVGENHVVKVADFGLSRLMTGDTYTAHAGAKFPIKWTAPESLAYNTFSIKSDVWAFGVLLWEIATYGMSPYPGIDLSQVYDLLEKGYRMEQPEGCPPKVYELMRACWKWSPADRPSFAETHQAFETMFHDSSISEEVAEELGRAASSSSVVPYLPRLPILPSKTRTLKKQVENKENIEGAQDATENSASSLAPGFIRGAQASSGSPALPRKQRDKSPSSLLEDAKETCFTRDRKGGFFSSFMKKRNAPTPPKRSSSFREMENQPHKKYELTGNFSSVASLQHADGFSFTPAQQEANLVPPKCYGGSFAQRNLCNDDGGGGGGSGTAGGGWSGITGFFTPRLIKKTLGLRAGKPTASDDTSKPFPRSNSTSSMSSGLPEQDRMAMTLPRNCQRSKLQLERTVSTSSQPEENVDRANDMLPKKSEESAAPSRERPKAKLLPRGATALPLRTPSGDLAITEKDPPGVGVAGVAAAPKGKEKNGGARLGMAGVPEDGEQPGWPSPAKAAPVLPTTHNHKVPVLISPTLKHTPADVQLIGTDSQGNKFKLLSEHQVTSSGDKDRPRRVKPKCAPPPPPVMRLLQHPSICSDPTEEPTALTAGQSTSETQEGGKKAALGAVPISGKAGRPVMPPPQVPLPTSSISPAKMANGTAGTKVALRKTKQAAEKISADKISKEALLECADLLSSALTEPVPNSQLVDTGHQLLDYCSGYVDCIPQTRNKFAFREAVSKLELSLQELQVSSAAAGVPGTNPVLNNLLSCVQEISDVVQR
Chain of MAP/microtubule affinity-regulating kinase 3 (Homo sapiens) (P27448 whole entry, looked up): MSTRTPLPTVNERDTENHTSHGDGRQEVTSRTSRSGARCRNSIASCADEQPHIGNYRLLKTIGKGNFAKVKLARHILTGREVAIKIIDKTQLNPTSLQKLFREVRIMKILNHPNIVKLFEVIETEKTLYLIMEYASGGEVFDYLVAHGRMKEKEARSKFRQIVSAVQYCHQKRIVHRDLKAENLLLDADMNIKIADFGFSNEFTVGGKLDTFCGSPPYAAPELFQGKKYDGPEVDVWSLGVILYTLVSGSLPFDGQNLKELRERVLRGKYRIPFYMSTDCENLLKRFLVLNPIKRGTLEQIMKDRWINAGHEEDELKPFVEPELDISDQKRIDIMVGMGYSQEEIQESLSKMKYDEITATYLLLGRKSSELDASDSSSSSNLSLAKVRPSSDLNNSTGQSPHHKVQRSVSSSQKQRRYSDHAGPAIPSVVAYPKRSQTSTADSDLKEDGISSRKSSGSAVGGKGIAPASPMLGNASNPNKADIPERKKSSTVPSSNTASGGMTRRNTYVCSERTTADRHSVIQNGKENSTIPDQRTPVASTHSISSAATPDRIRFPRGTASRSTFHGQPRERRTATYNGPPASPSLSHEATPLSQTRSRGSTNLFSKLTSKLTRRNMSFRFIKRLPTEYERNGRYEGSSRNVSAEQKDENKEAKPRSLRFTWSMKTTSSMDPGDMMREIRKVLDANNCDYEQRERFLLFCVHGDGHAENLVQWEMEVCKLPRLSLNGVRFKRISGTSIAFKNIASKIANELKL
Chain of Serine/threonine-protein kinase 25 (Homo sapiens) (O00506 whole entry, looked up): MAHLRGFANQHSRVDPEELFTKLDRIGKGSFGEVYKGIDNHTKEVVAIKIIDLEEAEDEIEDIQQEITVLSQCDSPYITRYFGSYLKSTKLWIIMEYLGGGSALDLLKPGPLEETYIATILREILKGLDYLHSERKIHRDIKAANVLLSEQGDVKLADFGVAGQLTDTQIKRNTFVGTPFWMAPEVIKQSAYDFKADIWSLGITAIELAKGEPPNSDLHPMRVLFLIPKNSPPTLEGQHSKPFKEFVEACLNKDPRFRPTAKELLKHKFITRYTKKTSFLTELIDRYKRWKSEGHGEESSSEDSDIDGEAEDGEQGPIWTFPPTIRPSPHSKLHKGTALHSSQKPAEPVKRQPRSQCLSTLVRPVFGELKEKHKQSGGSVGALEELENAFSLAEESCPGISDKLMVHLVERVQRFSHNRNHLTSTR
Chain of Cyclin-dependent kinase 1 (Homo sapiens) (P06493 whole entry, looked up): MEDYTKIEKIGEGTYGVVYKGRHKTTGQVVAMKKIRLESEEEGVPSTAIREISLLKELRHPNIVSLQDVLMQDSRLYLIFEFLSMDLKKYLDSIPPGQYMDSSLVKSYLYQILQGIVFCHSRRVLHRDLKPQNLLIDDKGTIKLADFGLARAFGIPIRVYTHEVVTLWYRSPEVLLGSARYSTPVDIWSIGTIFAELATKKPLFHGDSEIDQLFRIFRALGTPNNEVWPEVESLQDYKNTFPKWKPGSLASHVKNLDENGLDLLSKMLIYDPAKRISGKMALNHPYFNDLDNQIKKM
Chain of Calcium/calmodulin-dependent protein kinase type II subunit delta (Homo sapiens) (Q13557 whole entry): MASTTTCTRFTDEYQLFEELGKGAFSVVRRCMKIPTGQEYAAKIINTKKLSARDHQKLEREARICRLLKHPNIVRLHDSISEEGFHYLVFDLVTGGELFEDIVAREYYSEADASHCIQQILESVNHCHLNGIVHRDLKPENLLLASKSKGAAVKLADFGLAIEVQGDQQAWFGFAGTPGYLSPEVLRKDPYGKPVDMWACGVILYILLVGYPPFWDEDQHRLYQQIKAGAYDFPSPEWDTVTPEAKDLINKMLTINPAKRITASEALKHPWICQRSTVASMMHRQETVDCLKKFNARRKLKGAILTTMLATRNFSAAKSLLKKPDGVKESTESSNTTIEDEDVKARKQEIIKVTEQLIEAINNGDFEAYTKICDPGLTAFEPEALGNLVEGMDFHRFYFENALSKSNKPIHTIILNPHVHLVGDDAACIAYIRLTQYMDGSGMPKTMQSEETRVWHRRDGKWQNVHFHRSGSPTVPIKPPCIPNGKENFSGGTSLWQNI

SMILES: CNc1cc(Oc2cc(C(=O)Nc3cc(N4CCN(C)CC4)cc(C(F)(F)F)c3)ccc2C)ncn1
- inhibition [1]: -1.7%
- inhibition [2]: -1.9%
- inhibition [3]: -0.3%
- inhibition [4]: 20.3%
- inhibition [5]: 11.3%
- inhibition [6]: -1%
- inhibition [7]: 35.6%

SMILES: CCN1CCN(Cc2ccc(NC(=O)c3ccc(C)c(Oc4ccnc5[nH]ccc45)c3)cc2C(F)(F)F)CC1
- inhibition [8]: 28%
- inhibition [9]: 50.1%
- inhibition [10]: 98.4%

SMILES: CCN1CCN(Cc2ccc(NC(=O)c3ccc(C)c(/C=C/c4cnc5[nH]ccc5c4OC)c3)cc2C(F)(F)F)CC1
- inhibition [11]: -9.1%
- inhibition [12]: 2.1%
- residual activity [13]: 52%
